Values of other authors in patent US20120283175A1, “ANTIBACTERIAL COMPOSITIONS” (Achaogen, Inc., priority 2009, published 2012).

System: E. coli strain ATCC 25922
Conditions: reported in US 2004-229955A1; cited from earlier work

Structure (SMILES): Cc1cccc(CNCC(=O)Nc2ccc(C#CC#Cc3ccc(C(=O)N[C@@H](CN)C(=O)NO)cc3)cc2)c1 [N-[(1S)-1-(aminomethyl)-2-(hydroxyamino)-2-oxoethyl]-4-(4-{4-[({[(3methylphenyl)methyl]amino}acetyl)amino]phenyl}buta-1,3-diynyl)benzamide]
- synergy with erythromycin: strong synergy
